Results reported in patent publication US6365621B1, “Remedies or preventives for intractable epilepsy” (Pharmaceutical Co., Ltd., priority 1998, dated 2002).
Where “and” joins values, the source holds several entries; their conditions need not be identical. Equal values may be shown once. Read-outs that look alike come from different tables or passages of the source.

What was measured:
[1] = test system: kainate-induced amygdala seizures; assay type: in vivo, rat; as to Spikes from the amygdala after 24 h: key: (+): effective; (−): ineffective; as to Spikes from the amygdala after 48 h: key: (+): effective; (−): ineffective; as to Spikes from the amygdala after 72 h: key: (+): effective; (−): ineffective; as to Spikes from the amygdala just after intravenous injection: key: (+): effective; (−): ineffective
Protocol: [Method for measuring an electrophysiological effect] The following operation was performed by use of 19 Wistar male rats (Japan SLC Co.) each having a weight of 250-350 g. Each rat was anesthetized by pentobarbital and fixed in a stereotaxic apparatus. […] Subsequently, a bipolar depth electrode having a diameter of 0.2 mm were inserted into bilateral amygdala (A, +5.0; L, +−5.0; D, −3.0) and hippocampus (A, +3.0; L, +−3.2; D, +1.5). Screw electrodes were set at the left sensorimotor area (A, +1.0 (from bregam); L, +−2.5; D, 0.5 (from dura)), frontal sinus, and occipital median. The electrodes were connected to sockets, and the cannula, the electrodes, and the sockets were fixed on the cranium by use of dental cement. Seven days after operation, 1 μL of a solution of kainic acid dissolved in phosphoric acid buffer (1 mg/ml) was injected through the cannula (rate: […]) (n=12), so as to induce limbic system seizures. The electrodes were connected to an electroencephalograph, and the behavior of the rat in a cage was observed. An electroencephalogram was recorded by use of the electrode at the frontal sinus serving as an indifferent electrode and the electrode at the occipital median serving as ground. The behavior and electroencephalogram were simultaneously recorded by use of a video electroencephalogram recorder based on an electroencephalograph (SYNAFIT 1000; NEC San-ei Instruments, LTD.).
One to two hours after the injection of kainic acid, when a limbic system seizure was in status epilepticus, nefiracetam dissolved in saline (10 mg/mL) was slowly injected into a caudal vein in an amount selected from 10, 50, 100, and 200 mg/kg (n=12). The same amount of saline was injected into a vein of rats of the control group (n=7). Subsequently, behavior and electroencephalograms of the rat were continuously recorded for at least eight hours, followed by two-hour recording after 24 hours, 48 hours, and 72 hours. Changes in clinical seizure and electroencephalogram observations just after the injection of the nefiracetam solution or saline, and occurrence of seizures and electroencephalogram observations after 24, 48, and 72 hours were measured, and the results were evaluated on the basis of the comparison.

[2] = test system: kainate-induced cortical focal seizures; assay: Local cerebral glucose metabolism during kainate-induced cortical focal seizures; assay type: in vivo, rat; parameters: key to Change in local cerebral glucose metabolism rate: →: no change; →↓: decreased in a low degree; ↓: decreased in a moderate degree; ↓↓: decreased in a high degree; conditions: for Change in local cerebral glucose metabolism rate: 100 mg/kg i.v.
Protocol: [Method] A cannula was set in the left sensorimotor area of rats, and kinic acid was injected so as to induce seizures through the same manner as described in the experiment of I-1. Subsequently, a nefiracetam solution (100 mg/kg) was intravenously injected into each rat. After 60 minutes, [^14C] deoxyglucose was intravenously injected, and autoradiograms were produced through the same procedure as described in the experiment of I-2. A glucose utilization rate of each intracerabral structure was compared with that of the control group.

male mouse = conditions: peroral; cited from earlier work
[3] = 10 mg/kg i.v., EEG, individual rat
[4] = 50 mg/kg i.v., EEG, individual rat
[5] = 100 mg/kg i.v., EEG, individual rats
[6] = 200 mg/kg i.v., EEG, individual rats
[7] = 200 mg/kg i.v., individual rats

In the case of `Cc1cccc(C)c1NC(=O)CN1CCCC1=O` [nefiracetam, N-(2,6-dimethylphenyl)-2-(2-oxo-1-pyrrolidinyl)acetamide], the “Disappearance of seizures intravenous injection” value ([1]; 10 mg/kg i.v. during status epilepticus, individual rat) is reported as “−”, the “Spikes from the amygdala after 24 h” value [1, 3] is reported as “+” and the “Spikes from the amygdala just after intravenous injection” value (shortened to “Spikes from the amygdala just”) [1, 3] is reported as “+”. The Sedative action ([1]; 10 mg/kg i.v., individual rat) was “−”, the “Disappearance of seizures intravenous injection” value ([1]; 50 mg/kg i.v. during status epilepticus, individual rat) was “−” and the “Spikes from the amygdala after 24 h” value [1, 4] was “+”. The “Spikes from the amygdala just” value [1, 4] was “+”, the Sedative action ([1]; 50 mg/kg i.v., individual rat) was “−” and the “Duration of sedative action after injection” value ([1]; 100 mg/kg i.v.) was 30 to 60 min. The “Disappearance of seizures intravenous injection” value ([1]; 100 mg/kg i.v. during status epilepticus, individual rats) was “−”, the “Spikes from the amygdala after 24 h” value [1, 5] was “+” and the “Spikes from the amygdala just” value [1, 5] was “+”. For the same compound, the Sedative action ([1]; 100 mg/kg i.v., individual rats) was “+”, the “Duration of sedation from just after the injection” value ([1]; 200 mg/kg and 100 mg/kg i.v., approximately) was 60 to 90 min and the “Rats in which seizures were not suppressed (behavior and electroencephalogram)” value ([1]; 200 mg/kg i.v.) was 3 out of the 8. The “Disappearance of seizures intravenous injection” value ([1]; 200 mg/kg i.v. during status epilepticus, individual rats) was “+ (5×) and − (3×)”, the “Spikes from the amygdala after 24 h” value [1, 6] was “− (3×) and + (4×)” and the “Spikes from the amygdala after 48 h” value [1, 6] was “− (3×) and + (3×)”. For the same compound, the “Spikes from the amygdala after 72 h” value [1, 6] was “− (3×) and + (3×)”, the “Spikes from the amygdala just” value [1, 6] was “− (4×) and + (4×)” and the “Rats in which spikes corresponding to the amygdala disappeared from electroencephalogram” value ([1]; 200 mg/kg i.v., among the 5 rats whose seizures disappeared) was 4 out of the 5. For the same compound, the “Disappearance period of seizures after intravenous injection” value [1, 7] was 5 min and 35 min, the Sedative action [1, 7] was “+” and the “Death after intravenous injection (time)” value ([1]; 200 mg/kg i.v., rat N5) was 25 min. For the same compound, the “Rats in which seizures disappeared after injection” value ([1]; 200 mg/kg i.v., seizures later reappeared) was 5 out of 8, the “Changes in paroxysmal behavior or electroencephalograms” value ([1]; 10, 50, or 100 mg/kg i.v. during status epilepticus) was “no apparent changes” and the “Hypermetabolism in non-focal sensorimotor area, caudatum-putamen, thalamus and hippocampus in both sides” value ([2]; 100 mg/kg i.v. during seizures) was “hypermetabolism is suppressed remarkably”. The “Change in local cerebral glucose metabolism rate” value ([2]; Amygdala, focal side) was “→↓”, the “Change in local cerebral glucose metabolism rate” value ([2]; Amygdala, non-focal side) was “→↓” and the “Change in local cerebral glucose metabolism rate” value ([2]; Brain stem reticular formation, focal side) was “→↓”. For the same compound, the “Change in local cerebral glucose metabolism rate” value ([2]; Brain stem reticular formation, non-focal side) was “→↓”, the “Change in local cerebral glucose metabolism rate” value ([2]; Candatum-putamen, focal side) was “↓” and the “Change in local cerebral glucose metabolism rate” value ([2]; Candatum-putamen, non-focal side) was “↓↓”. The “Change in local cerebral glucose metabolism rate” value ([2]; Cerebellar cortex, focal side) was “→”, the “Change in local cerebral glucose metabolism rate” value ([2]; Cerebellar cortex, non-focal side) was “→” and the “Change in local cerebral glucose metabolism rate” value ([2]; Corpus callosum, focal side) was “→”. The “Change in local cerebral glucose metabolism rate” value ([2]; Corpus callosum, non-focal side) was “→”, the “Change in local cerebral glucose metabolism rate” value ([2]; Frontal lobe cortex, focal side) was “→↓” and the “Change in local cerebral glucose metabolism rate” value ([2]; Frontal lobe cortex, non-focal side) was “↓”. For the same compound, the “Change in local cerebral glucose metabolism rate” value ([2]; Hypothalamaus, focal side) was “↓”, the “Change in local cerebral glucose metabolism rate” value ([2]; Hypothalamaus, non-focal side) was “↓” and the “Change in local cerebral glucose metabolism rate” value ([2]; Occipital lobe cortex, focal side) was “→↓”. For the same compound, the “Change in local cerebral glucose metabolism rate” value ([2]; Occipital lobe cortex, non-focal side) was “↓”, the “Change in local cerebral glucose metabolism rate” value ([2]; Parietal lobe cortex, focal side) was “↓” and the “Change in local cerebral glucose metabolism rate” value ([2]; Parietal lobe cortex, non-focal side) was “↓↓”. For the same compound, the “Change in local cerebral glucose metabolism rate” value ([2]; Sensorimotor area cortex, focal side) was “→↓”, the “Change in local cerebral glucose metabolism rate” value ([2]; Sensorimotor area cortex, non-focal side) was “↓” and the “Change in local cerebral glucose metabolism rate” value ([2]; Septal area, focal side) was “→↓”. For the same compound, the “Change in local cerebral glucose metabolism rate” value ([2]; Septal area, non-focal side) was “→↓”, the “Change in local cerebral glucose metabolism rate” value ([2]; Substantia nigra, focal side) was “→↓” and the “Change in local cerebral glucose metabolism rate” value ([2]; Substantia nigra, non-focal side) was “→↓”. The “Change in local cerebral glucose metabolism rate” value ([2]; Teniporal lobe cortex, focal side) was “→↓”, the “Change in local cerebral glucose metabolism rate” value ([2]; Teniporal lobe cortex, non-focal side) was “↓” and the “Change in local cerebral glucose metabolism rate” value ([2]; Thalamus, focal side) was “→↓”. The “Change in local cerebral glucose metabolism rate” value ([2]; Thalamus, non-focal side) was “↓”, the “Change in local cerebral glucose metabolism rate” value ([2]; hippocampus, focal side) was “↓↓” and the “Change in local cerebral glucose metabolism rate” value ([2]; hippocampus, non-focal side) was “↓↓”. The acute toxicity (male mouse) was 2,005 mg/kg.
